Counter-ions that a name gives are not always drawn.
System: phosphorylated ERK downstream of KRAS G12C in MIA PaCa2 cells
Assay: Cell p-ERK detection experiment (HTRF) in MIA PaCa2
Format: cell-based, human
Settings: Homo sapiens, MIA PaCa-2, 2 h, MIA PaCa2 cells, 2 hours with compound, Advance ERK phospho-T202/Y204 HTRF kit; read-out: p-ERK IC50
Summary of the method: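 KRAS G12C-mutant MIA PaCa2 cells (2.5E4 per well, overnight) exposed 2 h to a 3.16-fold compound dilution series at 0.1% DMSO. Lysates probed 4 h with HTRF antibodies to ERK phospho-T202/Y204; inhibition versus DMSO control and blank, IC50 by four-parameter fit.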

| SMILES | IC50 |
| --- | --- |
| C=CC(=O)N1CCN2C(=O)c3c(N4Cc5cn(C)nc5[C@H]4C)nc(-c4c(O)cccc4F)c(Cl)c3OC[C@H]2C1 (single isomer, unassigned) [Z291-1S, trifluoroacetate] | 89 nM |
| C=CC(=O)N1CCN2C(=O)c3c(N4CC(O)CC4(C)C)nc(-c4c(O)cccc4F)c(C)c3OC[C@H]2C1 (single isomer, unassigned) [Z336-2] | 63 nM |
| C=CC(=O)N1CCN2C(=O)c3c(N4CCN(C)C[C@@H]4C)nc(-c4nc(N)cc(C)c4C(F)(F)F)c(Cl)c3OC[C@H]2C1 [Z328-1, (R)-8-acryloyl-3-(6-amino-4-methyl-3-(trifluoromethyl)pyridin-2-yl)-4-chloro-1-((S)-2,4-dimethylpiperazin-1-yl)-6,6a,7,8,9,10-hexahydro-12H-pyrazino[2,1-c]pyrido[3,4-f][1,4]oxazepin-12-one] | 15 nM |
| C=CC(=O)N1CCN2C(=O)c3c(N4CC(C)(O)CC4(C)C)nc(-c4c(O)cccc4F)c(Cl)c3OC[C@H]2C1 (stereo partly drawn) [Z243, (6aR)-8-acryloyl-4-chloro-3-(2-fluoro-6-hydroxyphenyl)-1-(4-hydroxy-2,2,4-trimethylpyrrolidin-1-yl)-6,6a,7,8,9,10-hexahydro-12H-pyrazino[2,1-c]pyrido[3,4-f][1,4]oxazepin-12-one] | 19 nM |
| C=CC(=O)N1CCN2C(=O)c3c(N4C[C@H](O)CC4(C)C)nc(-c4ccccc4F)c(Cl)c3OC[C@H]2C1 (single isomer, unassigned) [Z325-2] | 61 nM |
| C=CC(=O)N1CCN2C(=O)c3c(N4C[C@@](C)(O)CC4(C)C)nc(-c4c(O)cccc4F)c(F)c3OC[C@H]2C1 (single isomer, unassigned) [Z256b-1] | 43 nM |
| C=CC(=O)N1CCN2C(=O)c3c(N4Cc5cn(C)nc5C4(C)C)nc(-c4c(O)cccc4F)c(Cl)c3OC[C@H]2C1 [Z310, (6aR)-8-acryloyl-1-(2,6,6-trimethylpyrrolo[3,4-c]pyrazol-5(2H,4H,6H)-yl)-4-chloro-3-(2-fluoro-6-hydroxyphenyl)-6,6a,7,8,9,10-hexahydro-12H-pyrazino[2,1-c]pyrido[3,4-f][1,4]oxazepin-12-one] | 104 nM |
| C=CC(=O)N1CCN2C(=O)c3c(N4CC[C@H](OC)C4(C)C)nc(-c4c(O)cccc4F)c(F)c3OC[C@H]2C1 (single isomer, unassigned) [Z327-2] | 172 nM |
| C=CC(=O)N1CCN2C(=O)c3c(N4Cc5nn(C)cc5[C@@H]4C)nc(-c4c(O)cccc4F)c(Cl)c3OC[C@H]2C1 (single isomer, unassigned) [Z345-2] | 61 nM |
| C=CC(=O)N1CCN2C(=O)c3c(N4C[C@@H](OC)CC4(C)C)nc(-c4c(O)cccc4F)c(F)c3OC[C@H]2C1 (single isomer, unassigned) [Z256a-1] | 42 nM |
| C=CC(=O)N1CCN2C(=O)c3c(N4Cc5cn(C)nc5C4C)nc(-c4c(O)cccc4F)c(Cl)c3OC[C@H]2C1 (stereo partly drawn) [Z291-2] | 24 nM |
| C=CC(=O)N1CCN2C(=O)c3c(N4C[C@@H](O)CC4(C)C)nc(-c4c(O)cccc4F)c(F)c3OC[C@H]2C1 (single isomer, unassigned) [Z256-1] | 20 nM |
| C=CC(=O)N1CCN2C(=O)c3c(N4CC(C#N)CC4(C)C)nc(-c4c(O)cccc4F)c(F)c3OC[C@H]2C1 (stereo partly drawn) [Z335] | 130 nM |
| C=CC(=O)N1CCN2C(=O)c3c(N4C[C@@H](OC)CC4(C)C)nc(-c4c(O)cccc4F)c(Cl)c3OC[C@H]2C1 (single isomer, unassigned) [Z244-1] | 31 nM |
| C=CC(=O)N1CCN2C(=O)c3c(N4CCC[C@@]4(C)CO)nc(-c4c(O)cccc4F)c(Cl)c3OC[C@H]2C1 [Z279-2] | 35 nM |

Now from value to molecule:

| IC50 | SMILES |
| --- | --- |
| 20 nM | C=CC(=O)N1CCN2C(=O)c3c(N4CCN(C(=O)CC)C[C@@H]4C)nc(-c4c(O)cccc4F)c(Cl)c3OC[C@H]2C1 [Z316-1, (6aR)-8-acryloyl-4-chloro-3-(2-fluoro-6-hydroxyphenyl)-1-((S)-2-methyl-4-propionylpiperazin-1-yl)-6,6a,7,8,9,10-hexahydro-12H-pyrazino[2,1-c]pyrido[3,4-f][1,4]oxazepin-12-one] |
| 30 nM | C=CC(=O)N1CCN2C(=O)c3c(N4C[C@@H](N(C)C)C[C@@H]4C)nc(-c4c(O)cccc4F)c(Cl)c3OC[C@H]2C1 [Z237-2, (6aR)-8-acryloyl-4-chloro-1-((2S,4S)-4-(dimethylamino)-2-methylpyrrolidin-1-yl)-3-(2-fluoro-6-hydroxyphenyl)-6,6a,7,8,9,10-hexahydro-12H-pyrazino[2,1-c]pyrido[3,4-f][1,4]oxazepin-12-one] |
| 17 nM | C=CC(=O)N1CCN2C(=O)c3c(N4CCN(C(=O)C5CC5)C[C@@H]4C)nc(-c4c(O)cccc4F)c(Cl)c3OC[C@H]2C1 [Z320-1, (6aR)-8-acryloyl-4-chloro-1-((S)-4-(cyclopropanecarbonyl)-2-methylpiperazin-1-yl)-3-(2-fluoro-6-hydroxyphenyl)-6,6a,7,8,9,10-hexahydro-12H-pyrazino[2,1-c]pyrido[3,4-f][1,4]oxazepin-12-one] |
| 22 nM | C=CC(=O)N1CCN2C(=O)c3c(N4CCC(O)C4(C)C)nc(-c4c(O)cccc4F)c(Cl)c3OC[C@H]2C1 (stereo partly drawn) [Z241, (6aR)-8-acryloyl-1-(3-hydroxy-2,2-dimethylpyrrolidin-1-yl)-4-chloro-3-(2-fluoro-6-hydroxyphenyl)-6,6a,7,8,9,10-hexahydro-12H-pyrazino[2,1-c]pyrido[3,4-f][1,4]oxazepin-12-one] |
| 46 nM | C=CC(=O)N1CCN2C(=O)c3c(N4CC[C@@H](OC)[C@@H]4C)nc(-c4c(O)cccc4F)c(Cl)c3OC[C@H]2C1 [Z338-1, (6aR)-8-acryloyl-4-chloro-3-(2-fluoro-6-hydroxyphenyl)-1-((2S,3R)-3-methoxy-2-methylpyrrolidin-1-yl)-6,6a,7,8,9,10-hexahydro-12H-pyrazino[2,1-c]pyrido[3,4-f][1,4]oxazepin-12-one] |
| 253 nM | C=CC(=O)N1CCN2C(=O)c3c(N4CCN(C)C[C@@H]4C)nc(-c4c(F)ccc(F)c4O)c(Cl)c3OC[C@H]2C1 [Z356, (6aR)-8-acryloyl-4-chloro-3-(3,6-difluoro-2-hydroxyphenyl)-1-((S)-2,4-dimethylpiperazin-1-yl)-6,6a,7,8,9,10-hexahydro-12H-pyrazino[2,1-c]pyrido[3,4-f][1,4]oxazepin-12-one] |
| 11 nM | C=CC(=O)N1CCN2C(=O)c3c(N4CC[C@H](OC)[C@@H]4C)nc(-c4c(O)cccc4F)c(Cl)c3OC[C@H]2C1 [Z347-1, (6aR)-8-acryloyl-4-chloro-3-(2-fluoro-6-hydroxyphenyl)-1-((2S,3S)-3-methoxy-2-methylpyrrolidin-1-yl)-6,6a,7,8,9,10-hexahydro-12H-pyrazino[2,1-c]pyrido[3,4-f][1,4]oxazepin-12-one] |
| 26 nM | C=CC(=O)N1CCN2C(=O)c3c(N4CCCC4(C)C)nc(-c4c(O)cccc4F)c(Cl)c3OC[C@H]2C1 [Z22, (6aR)-8-acryloyl-4-chloro-1-(2,2-dimethylpyrrolidin-1-yl)-3-(2-fluoro-6-hydroxyphenyl)-6,6a,7,8,9,10-hexahydro-12H-pyrazino[2,1-c]pyrido[3,4-f][1,4]oxazepin-12-one] |
| 19 nM | C=CC(=O)N1CCN2C(=O)c3c(N4C[C@@H](CO)CC4(C)C)nc(-c4c(O)cccc4F)c(Cl)c3OC[C@H]2C1 (single isomer, unassigned) [Z240-1] |
| 23 nM | C=CC(=O)N1CCN2C(=O)c3c(N4CCN(C(C)=O)C[C@@H]4C)nc(-c4c(O)cccc4F)c(Cl)c3OC[C@H]2C1 [Z313-1] |
| 16 nM | C=CC(=O)N1CCN2C(=O)c3c(N4CC(=O)N(CC)C[C@@H]4C)nc(-c4c(O)cccc4F)c(Cl)c3OC[C@H]2C1 [Z319-1, (6aR)-8-acryloyl-4-chloro-1-((S)-4-ethyl-2-methyl-5-oxopiperazin-1-yl)-3-(2-fluoro-6-hydroxyphenyl)-6,6a,7,8,9,10-hexahydro-12H-pyrazino[2,1-c]pyrido[3,4-f][1,4]oxazepin-12-one] |
| 119 nM | C=CC(=O)N1CCN2C(=O)c3c(N4CCN(C)C[C@@H]4C)nc(-c4c(O)ccc(Cl)c4F)c(Cl)c3OC[C@H]2C1 [Z343, (6aR)-8-acryloyl-4-chloro-3-(3-chloro-2-fluoro-6-hydroxyphenyl)-1-((S)-2,4-dimethylpiperazin-1-yl)-6,6a,7,8,9,10-hexahydro-12H-pyrazino[2,1-c]pyrido[3,4-f][1,4]oxazepin-12-one] |

From patent US20230203060A1 (GENFLEET THERAPEUTICS (SHANGHAI) INC., priority 2020, published 2023)
